Data as given in patent publication US7811771B2, “Method for the functional determination of mannan-binding-lectin associated serine proteases (MASPs) and complexes thereof” (Nederlandse Organisatie voor …, priority 2004, dated 2010).

What was measured:
MBL-MASP complex = test: Effect of inhibitor on serum MASP activity (captured MBL-MASP complex, pro-urokinase detection); format: biochemical; details: 0-1 μM BMpg vs DMSO control; human serum captured on mannan coated plate; wild-type pro-urokinase and pyro-Glu-Gly-Arg-pNA; 37° C., 2 h
Method: MBL-MASP complexes were captured on a mannan coated plate as described in example 4. After capture, buffer, pro-urokinase and peptide substrate and boroMpg (0-1 μM final concentration) in DMSO, or an equivalent amount of pure DMSO (control) were added and activity was measured. All details were as described in example 4. Activity was expressed as ΔA^405/h^2×1000.
A mannan coated plate was used to capture MBL-MASP complex from diluted human serum. After washing, 100 μl buffer containing 0-1 μM Z-D-Phe-Pro-methoxypropylboroglycine-pinanediolester (BMpg or boroMpg) or buffer containing an identical volume of DMSO (solvent of boroMpg), 15 μl (50 μg/ml) wild-type pro-urokinase and 10 μl (6 mM) pyro-Glu-Gly-Arg-pNA were added. The plate was incubated at 37° C. and colour formation was followed for 2 h with a plate reader at 405 nm. Activities were expressed as ΔA/h^2×1000. All details are as described in Example 4. The results summarized in FIG. 9 show no effect of BMpg on activity of the captured MBL-MASP complex.

MASP-1 = biological target: T1, MASP-1 (Homo sapiens, UniProt P48740); details: known from Presanis et al. Mol. Immunol. 2003; cited from earlier work
T1 sequence (P48740 20-699): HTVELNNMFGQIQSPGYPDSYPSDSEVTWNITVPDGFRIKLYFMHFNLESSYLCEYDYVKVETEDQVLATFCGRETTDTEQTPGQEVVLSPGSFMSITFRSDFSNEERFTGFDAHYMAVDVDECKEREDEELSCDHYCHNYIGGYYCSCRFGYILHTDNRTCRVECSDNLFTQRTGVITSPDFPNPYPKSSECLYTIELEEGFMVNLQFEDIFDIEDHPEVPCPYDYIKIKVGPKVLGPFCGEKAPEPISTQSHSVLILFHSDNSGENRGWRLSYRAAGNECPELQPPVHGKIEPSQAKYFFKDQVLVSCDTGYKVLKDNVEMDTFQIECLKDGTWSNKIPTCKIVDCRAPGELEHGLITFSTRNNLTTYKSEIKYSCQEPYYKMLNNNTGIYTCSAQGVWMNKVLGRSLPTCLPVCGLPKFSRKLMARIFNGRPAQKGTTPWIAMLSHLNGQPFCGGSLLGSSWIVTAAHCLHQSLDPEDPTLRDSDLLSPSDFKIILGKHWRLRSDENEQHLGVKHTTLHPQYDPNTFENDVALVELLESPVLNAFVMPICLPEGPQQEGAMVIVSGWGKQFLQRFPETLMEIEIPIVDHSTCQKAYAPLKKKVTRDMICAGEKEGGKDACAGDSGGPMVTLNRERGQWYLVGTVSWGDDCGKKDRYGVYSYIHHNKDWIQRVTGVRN

MASP-2 [1] = biological target: T2, MASP-2 (Homo sapiens, UniProt O00187); details: known from Presanis et al. Mol. Immunol. 2003; cited from earlier work
Target sequence in this assay (O00187 16-686): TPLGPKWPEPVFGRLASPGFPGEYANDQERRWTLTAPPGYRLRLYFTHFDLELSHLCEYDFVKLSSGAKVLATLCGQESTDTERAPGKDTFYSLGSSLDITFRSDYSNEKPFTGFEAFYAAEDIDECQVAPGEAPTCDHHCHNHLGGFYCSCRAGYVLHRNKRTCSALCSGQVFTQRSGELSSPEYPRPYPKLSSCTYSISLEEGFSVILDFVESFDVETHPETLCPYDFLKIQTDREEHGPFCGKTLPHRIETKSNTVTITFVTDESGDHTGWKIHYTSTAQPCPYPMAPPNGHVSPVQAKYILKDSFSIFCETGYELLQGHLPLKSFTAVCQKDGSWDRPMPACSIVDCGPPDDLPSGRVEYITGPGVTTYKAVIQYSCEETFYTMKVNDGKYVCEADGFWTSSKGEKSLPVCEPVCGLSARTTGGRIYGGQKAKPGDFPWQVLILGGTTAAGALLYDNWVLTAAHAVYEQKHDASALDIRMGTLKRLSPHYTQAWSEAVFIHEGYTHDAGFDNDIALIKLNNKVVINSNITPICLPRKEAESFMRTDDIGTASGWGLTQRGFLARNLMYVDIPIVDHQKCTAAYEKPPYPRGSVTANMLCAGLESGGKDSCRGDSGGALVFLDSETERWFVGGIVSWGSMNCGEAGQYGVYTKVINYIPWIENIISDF

MASP-2 [2] = biological target: T2, MASP-2; test: Activity of recombinant MASP-2 on novel substrates; format: biochemical; parameters: Recombinant MASP-2 (active form) at 600 μg/ml was serially diluted; details: serially diluted recombinant MASP-2, 37° C., 2 h, A405
Method: Various dilutions of purified recombinant MASP-2 were tested for their response with wild-type pro-urokinase based detection and substrate 2 (table 1) based detection. MASP-2 was diluted in buffer to which wt pro-urokinase or pro-urokinase derivative 2 was added followed by pyro-Glu-Gly-Arg-pNA. The plate was incubated for 2h and A^405 was measured (see example 5 for details).
The activity of purified recombinant MASP-2 on wt pro-urokinase and substrate 2 was investigated. Recombinant MASP-2 (active form) at 600 μg/ml was serially diluted in 50 mM Tris HCl pH7.6, 1.5 mM NaCl, 0.5 mM CaCl2, 1 μM ZnCl2, 0.01% (v/v) BRIJ35™. To wells of a microtiter plate 100 μl of MASP-2 dilution, 10 μof wt pro-urokinase at approximately 50 μg/ml) or 10 μl substrate 2 (at approximately 75 μg/ml) were added, followed by 10 μl of peptide substrate pyro Glu-Gly-Arg-pNA (at 6 mM). The plate was incubated at 37° C. and absorbance change at 405 nm was followed in time for 2 h.
Target sequence in this assay (O00187 16-444 limits assumed): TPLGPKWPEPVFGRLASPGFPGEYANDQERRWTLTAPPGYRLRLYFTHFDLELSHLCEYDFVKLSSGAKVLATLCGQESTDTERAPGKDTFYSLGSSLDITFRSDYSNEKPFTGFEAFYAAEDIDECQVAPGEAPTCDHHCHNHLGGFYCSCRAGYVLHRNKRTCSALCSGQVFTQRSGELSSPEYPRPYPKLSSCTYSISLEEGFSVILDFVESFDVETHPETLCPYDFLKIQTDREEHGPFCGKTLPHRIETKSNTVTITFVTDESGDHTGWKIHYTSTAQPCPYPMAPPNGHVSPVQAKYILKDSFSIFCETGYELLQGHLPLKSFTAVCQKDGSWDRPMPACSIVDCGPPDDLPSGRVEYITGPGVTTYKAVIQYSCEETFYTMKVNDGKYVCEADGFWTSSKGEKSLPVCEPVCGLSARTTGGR
Target sequence in this assay (O00187 445-686 limits assumed): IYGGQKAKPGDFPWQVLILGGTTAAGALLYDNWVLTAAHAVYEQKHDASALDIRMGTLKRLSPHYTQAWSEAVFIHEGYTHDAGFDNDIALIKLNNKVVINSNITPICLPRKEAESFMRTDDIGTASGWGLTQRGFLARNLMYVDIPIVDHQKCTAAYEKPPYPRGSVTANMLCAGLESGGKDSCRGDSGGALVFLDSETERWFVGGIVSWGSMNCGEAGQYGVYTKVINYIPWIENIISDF

MBL-MASP complexes = test: Determination of MBL-MASP complexes in serum with pro-urokinase substrates; format: biochemical, human; details: serum diluted 10-320 fold, mannan coated plate
Method: A mannan-coated microtiter plate was used to bind and immobilize MBL-MASP complexes from heterozygous MBL-deficient serum (A/B genotype), homozygous MBL-deficient serum (B/B genotype) and normal serum (A/A genotype) in various dilutions. After washing, wild-type pro-urokinase or substrate 2 and chromogenic peptide pyro-Glu-Gly-Arg-pNA were added. The absorbance change at 405 nm was followed in time. The slopes of A405 versus time-squared graphs were taken as a measure of activity.
Based on the results of example 2 an assay for MBL-MASP complexes in serum was developed. Three different sera were used, serum […] MBL deficiency, serum (B/B) with an homozygous MBL deficiency and a normal serum (A/A). A microtiter plate was coated with mannan, washed and blocked as described in example 2.
Serum samples were diluted 10-320 fold in GVB++buffer (see example 2) and 100 μl of these dilutions were pipetted into wells of the coated microtiter plate. […]
To all wells 100 μl of detection buffer, 10 μl of either wild-type pro-urokinase or pro-urokinase derivative 2 at 7.6 μg/ml and 10 μl of pyro-Glu-Gly-Arg-pNA at 6 mM were added (see example 2). The plate was shaken and A^405 was followed in time with a microtiter plate reader. The slopes of the graphs of A^405 versus time squared were calculated and used as a measure of activity.

Molecule | effect on activity of the captured MBL-MASP complex (ΔA/h^2×1000) (MBL-MASP complex) | inhibition of MASP-1 (MASP-1) | inhibition of MASP-2 (MASP-2 [1]) | detection of MASP-2 activity (MASP-2 [2]) | activity in normal (A/A) serum (slope of A405 versus time squared) (MBL-MASP complexes)
COCCC[C@@H](NC(=O)[C@@H]1CCCN1C(=O)[C@@H](Cc1ccccc1)NC(=O)OCc1ccccc1)B1OC2C[C@@H]3C[C@@H](C3(C)C)[C@]2(C)O1 (stereo partly drawn) [BMpg, Z-D-Phe-Pro-methoxypropylboroglycine-pinanediolester] | no effect | inhibit MASP-1 | not MASP-2 |  | 
substrate 2: pro-urokinase mutant with activation site Asn-Leu-Thr-Arg-Ile-Val-Gly-Gly (SEQ ID NO:4) (NLTRIVGG; activation site) |  |  |  | can be detected | dose dependent activity
